Values of other authors, collected in PMC11944884, “Bioactive Secondary Metabolites of Two Chinese Edible Boletes, Phlebopus portentosus and Butyriboletus roseoflavus” (Molecules, 2025).

Tested on: head domain of HA
Details: molecular docking, ref [56]; cited from earlier work

CC[C@H](CC[C@@H](C)[C@H]1CC[C@H]2[C@@H]3CC=C4C[C@@H](O)CC[C@]4(C)[C@H]3CC[C@]12C)C(C)C [β-sitosterol]
binding affinity to the head domain of HA: highest binding affinity
